Like-named read-outs stand apart in the source and are kept apart here.
Target: T1, Androgen Receptor (Homo sapiens, UniProt P10275)
T1 construct: endogenous in cells; host or cells: VCaP cells
T1 sequence (P10275 1-920): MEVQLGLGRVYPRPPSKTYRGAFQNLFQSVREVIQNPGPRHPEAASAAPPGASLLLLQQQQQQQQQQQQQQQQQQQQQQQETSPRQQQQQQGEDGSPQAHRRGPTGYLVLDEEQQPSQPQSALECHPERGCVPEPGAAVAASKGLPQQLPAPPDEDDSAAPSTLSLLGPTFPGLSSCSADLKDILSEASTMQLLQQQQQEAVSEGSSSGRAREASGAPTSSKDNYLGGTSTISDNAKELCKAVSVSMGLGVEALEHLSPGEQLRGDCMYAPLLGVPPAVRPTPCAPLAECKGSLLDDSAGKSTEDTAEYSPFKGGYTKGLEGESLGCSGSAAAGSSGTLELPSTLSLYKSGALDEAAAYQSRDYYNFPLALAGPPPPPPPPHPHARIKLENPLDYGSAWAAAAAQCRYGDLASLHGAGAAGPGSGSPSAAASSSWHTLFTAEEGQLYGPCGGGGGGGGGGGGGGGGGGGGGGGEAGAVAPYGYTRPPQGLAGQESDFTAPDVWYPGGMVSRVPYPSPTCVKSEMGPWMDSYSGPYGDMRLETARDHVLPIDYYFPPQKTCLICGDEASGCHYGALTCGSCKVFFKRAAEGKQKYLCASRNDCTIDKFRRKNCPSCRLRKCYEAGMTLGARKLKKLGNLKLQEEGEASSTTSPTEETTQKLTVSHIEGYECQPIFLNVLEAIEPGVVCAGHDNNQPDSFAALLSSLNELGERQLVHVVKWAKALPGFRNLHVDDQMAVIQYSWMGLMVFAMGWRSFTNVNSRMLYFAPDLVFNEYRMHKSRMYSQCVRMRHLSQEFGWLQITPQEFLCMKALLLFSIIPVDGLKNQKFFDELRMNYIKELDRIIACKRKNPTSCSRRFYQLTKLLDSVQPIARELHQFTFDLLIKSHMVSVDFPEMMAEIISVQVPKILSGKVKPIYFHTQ
Assay: Androgen Receptor ELISA assay (PathScan AR ELISA) in VCaP cells: AR degradation, Dmax and DC50
Assay type: cell-based
Details: for DC50: read-out: VCaP DC50; for Dmax: VCaP, read-out: VCaP Dmax (%)
Outline: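 VCaP cells in phenol red-free RPMI with 5% charcoal-stripped FBS were grown at least 3 days, then given compound as 7 half-log doses in 0.1% DMSO with 0.1 nM R1881 for 24 h. Lysates went into a sandwich AR ELISA with TMB read at 450 nm.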

[1] = concentration that caused 50% Androgen Receptor degradation, VCaP cells (Table 32)
[2] = concentration that caused 50% Androgen Receptor degradation, VCaP cells

DC50 (VCaP cells, Table 36)	SMILES	Dmax	other results
–	Cc1ncsc1-c1ccc([C@@H](CN(C)C)NC(=O)[C@@H]2C[C@@H](O)CN2C(=O)[C@@H](NC(=O)COCCCCCOc2ccc(C(=O)N[C@H]3C(C)(C)[C@H](Oc4ccc(C#N)c(Cl)c4)C3(C)C)cc2)C(C)(C)C)cc1 [Example 471]	–	DC50 (VCaP cells, Table 35): > 501 nM; Dmax (VCaP cells, Table 35): 26 to 50%
> 501 nM	CC(C)C[C@@H](C(=O)N[C@@H](C)C(=O)N1C[C@H](O)C[C@H]1C(=O)N[C@@H](C)c1ccc(Cl)cc1)N1CCN(CCCc2ccc(C(=O)N[C@H]3C(C)(C)[C@H](Oc4ccc(C#N)c(Cl)c4)C3(C)C)cc2)CC1 [Example 738, (2S,4R)-1-(((S)-2-(4-(3-(4-(((1r,3r)-3-(3-chloro-4-cyanophenoxy)-2,2,4,4-tetramethylcyclobutyl)carbamoyl)phenyl)propyl)piperazin-1-yl)-4-methylpentanoyl)-L-alanyl)-N-((S)-1-(4-chlorophenyl)ethyl)-4-hydroxypyrrolidine-2-carboxamide]	–	Dmax (VCaP cells, Table 36): < 25%
< 50 nM	Cc1ncsc1-c1ccc([C@H](C)NC(=O)C2C[C@@H](O)CN2C(=O)C(NC(=O)CN2CC3(CC(N4CCN(c5ccc(C(=O)NC6C(C)(C)C(Oc7ccc(C#N)c(Cl)c7)C6(C)C)cn5)CC4)C3)C2)C(C)(C)C)cc1 (stereo partly drawn) [Example 814, N-((1r,3r)-3-(3-chloro-4-cyanophenoxy)-2,2,4,4-tetramethylcyclobutyl)-6-(4-(2-(2-(((S)-1-((2S, 4R)-4-hydroxy-2-(((S)-1-(4-(4-methylthiazol-5-yl)phenyl)ethyl)carbamoyl)pyrrolidin-1-yl)-3,3-dimethyl-1-oxobutan-2-yl)amino)-2-oxoethyl)-2-azaspiro [3.3]heptan-6-yl)piperazin-1-yl) nicotinamide]	–	Dmax (VCaP cells, Table 36): 26 to 50%
–	Cc1ncsc1-c1ccc(CNC(=O)[C@@H]2C[C@@H](O)CN2C(=O)[C@@H](NC(=O)COC(C)CCCOc2ccc(-c3ccc(N4C(=S)N(c5ccc(C#N)c(C(F)(F)F)c5)C(=O)C4(C)C)cc3)cc2)C(C)(C)C)cc1 (stereo in doubt) [Example 147, (2S,4R)-1-[(2S)-2-(2-{[(2S)-5-[4-(4-{3-[4-cyano-3-(trifluoromethyl)phenyl]-5,5-dimethyl-4-oxo-2-sulfanylideneimidazolidin-1-yl}phenyl)phenoxy]pentan-2-yl]oxy}acetamido)-3,3-dimethylbutanoyl]-4-hydroxy-N-{[4-(4-methyl-1,3-thiazol-5-yl)phenyl]methyl}pyrrolidine-2-carboxamide]	> 71%	DC50 [1]: < 50 nM
–	Cc1ncsc1-c1ccc(CNC(=O)[C@@H]2C[C@@H](O)CN2C(=O)[C@@H](NC(=O)COCCOCCOCCOc2ccc(N3C(=S)N(c4ccc(C#N)c(C(F)(F)F)c4)C(=O)C3(C)C)cc2)C(C)(C)C)cc1 [Example 16, (2S,4R)-1-[(2S)-2-[2-(2-{2-[2-(4-{3-[4-cyano-3-(trifluoromethyl)phenyl]-5,5-dimethyl-4-oxo-2-sulfanylideneimidazolidin-1-yl}phenoxy)ethoxy]ethoxy}ethoxy)acetamido]-3,3-dimethylbutanoyl]-4-hydroxy-N-{[4-(4-methyl-1,3-thiazol-5-yl)phenyl]methyl}pyrrolidine-2-carboxamide]	26 to 50%	–
–	CC(C)(C)[C@H](NC(=O)COCC#CC#CCOc1ccc(N2C(=S)N(c3ccc(C#N)c(C(F)(F)F)c3)C(=O)C2(C)C)cc1F)C(=O)N1C[C@H](O)C[C@H]1C(=O)NCc1ccc(-c2cnco2)cc1 [Example 61, (2S,4R)-1-[(2S)-2-(2-{[6-(4-{3-[4-cyano-3-(trifluoromethyl)phenyl]-5,5-dimethyl-4-oxo-2-sulfanylideneimidazolidin-1-yl}-2-fluorophenoxy)hexa-2,4-diyn-1-yl]oxy}acetamido)-3,3-dimethylbutanoyl]-4-hydroxy-N-{[4-(1,3-oxazol-5-yl)phenyl]methyl}pyrrolidine-2-carboxamide]	51 to 70%	DC50 [2]: 51 to 500 nM
< 50 nM	Cc1ncsc1-c1ccc([C@H](C)NC(=O)C2C[C@@H](O)CN2C(=O)[C@@H](NC(=O)CN2C[C@@H]3C[C@H]2CN3CCCc2ccc(C(=O)N[C@H]3C(C)(C)[C@H](Oc4ccc(C#N)c(Cl)c4)C3(C)C)cc2)C(C)(C)C)cc1 (stereo partly drawn) [Example 807, (2S,4R)-1-((S)-2-(2-((1R,4R)-5-(3-(4-(((1r,3R)-3-(3-chloro-4-cyanophenoxy)-2,2,4,4-tetramethylcyclobutyl)carbamoyl)phenyl)propyl)-2,5-diazabicyclo[2.2.1]heptan-2-yl)acetamido)-3,3-dimethylbutanoyl)-4-hydroxy-N-((S)-1-(4-(4-methylthiazol-5-yl)phenyl)ethyl)pyrrolidine-2-carboxamide]	–	–
> 501 nM	Cc1ncsc1-c1ccc([C@H](C)NC(=O)[C@@H]2C[C@@H](O)CN2C(=O)[C@@H](NC(=O)C(=O)N2CCN(CCOc3ccc(C(=O)N[C@H]4C(C)(C)[C@H](Oc5ccc(C#N)c(C(F)(F)F)c5)C4(C)C)cc3)CC2)C(C)(C)C)cc1 [Example 679, (2S,4R)-1-((S)-2-(2-(4-(2-(4-(((1r,3r)-3-(4-cyano-3-(trifluoromethyl)phenoxy)-2,2,4,4-tetramethylcyclobutyl)carbamoyl)phenoxy)eth-yl)piperazin-1-yl)-2-oxoacetamido)-3,3-dimethylbutanoyl)-4-hydroxy-N-((S)-1-(4-(4-methylthiazol-5-yl)phenyl)ethyl)pyrrolidine-2-carboxamide]	–	–
51 to 500 nM	CCO/N=C(\CCCCC(=O)N[C@H](C(=O)N1C[C@H](O)C[C@H]1C(=O)N[C@@H](C)c1ccc(-c2scnc2C)cc1)C(C)(C)C)CCCc1ccc(C(=O)N[C@H]2C(C)(C)[C@H](Oc3ccc(C#N)c(Cl)c3)C2(C)C)nc1 [Example 695, N-((1r,3r)-3-(3-chloro-4-cyanophenoxy)-2,2,4,4-tetramethylcyclobutyl)-5-((E)-4-(ethoxyimino)-9-(((S)-1-((2S,4R)-4-hydroxy-2-(((S)-1-(4-(4-methylthiazol-5-yl)phenyl)ethyl)carbam-oyl)pyrrolidin-1-yl)-3,3-dimethyl-1-oxobutan-2-yl)amino)-9-oxononyl)picolinamide]	–	Dmax (VCaP cells, Table 36): 51 to 70%
–	Cc1ncsc1-c1ccc(CNC(=O)[C@@H]2C[C@@H](O)CN2C(=O)[C@@H](NC(=O)COCCCOCCC(O)CCOc2ccc(N3C(=S)N(c4ccc(C#N)c(C(F)(F)F)c4)C(=O)C3(C)C)cc2)C(C)(C)C)cc1 (stereo partly drawn) [Example 13, (2S,4R)-1-[(2S)-2-[2-(3-{[5-(4-{3-[4-cyano-3-(trifluoromethyl)phenyl]-5,5-dimethyl-4-oxo-2-sulfanylideneimidazolidin-1-yl}phenoxy)-3-hydroxypentyl]oxy}propoxy)acetamido]-3,3-dimethylbutanoyl]-4-hydroxy-N-{[4-(4-methyl-1,3-thiazol-5-yl)phenyl]methyl}pyrrolidine-2-carboxamide]	26 to 50%	DC50 [2]: < 50 nM
–	Cc1ncsc1-c1ccc(CNC(=O)[C@@H]2C[C@@H](O)CN2C(=O)[C@@H](NC(=O)COCCCCOCCCOc2ccc(N3C(=S)N(c4ccc(C#N)c(C(F)(F)F)c4)C(=O)C3(C)C)cc2F)C(C)(C)C)cc1 [Example 53, (2S,4R)-1-[(2S)-2-(2-{4-[3-(4-{3-[4-cyano-3-(trifluoromethyl)phenyl]-5,5-dimethyl-4-oxo-2-sulfanylideneimidazolidin-1-yl}-2-fluorophenoxy)propoxy]butoxy}acetamido)-3,3-dimethylbutanoyl]-4-hydroxy-N-{[4-(4-methyl-1,3-thiazol-5-yl)phenyl]methyl}pyrrolidine-2-carboxamide]	> 71%	DC50 [2]: 51 to 500 nM
–	Cc1ncsc1-c1ccc(CNC(=O)[C@@H]2C[C@@H](O)CN2C(=O)[C@@H](NC(=O)CCOCCOc2ccc(-c3ccc(N4C(=S)N(c5ccc(C#N)c(C(F)(F)F)c5)C(=O)C4(C)C)cc3)cn2)C(C)(C)C)cc1 [Example 86]	26 to 50%	DC50 [1]: < 50 nM

SMILES	DC50 (VCaP cells, Table 36)	Dmax	other results
Cc1ncsc1-c1ccc([C@H](C)NC(=O)[C@@H]2C[C@@H](O)CN2C(=O)[C@@H](C(C)C)N2Cc3ccc(N4CCN(CCCc5ccc(C(=O)N[C@H]6C(C)(C)[C@H](Oc7ccc(C#N)c(Cl)c7)C6(C)C)cc5)CC4)cc3C2=O)cc1 [Example 777, (2S,4R)-1-((R)-2-(6-(4-(3-(4-(((1r,3r)-3-(3-chloro-4-cyanophenoxy)-2,2,4,4-tetramethylcyclobutyl)carbamoyl)phenyl)propyl)piperazin-1-yl)-1-oxoisoindolin-2-yl)-3-methylbutanoyl)-4-hydroxy-N-((S)-1-(4-(4-methylthiazol-5-yl)phenyl)ethyl)pyrrolidine-2-carboxamide]	> 501 nM	< 25%	–

From US11427548B2 (Arvinas Operations, Inc., priority 2015, dated 2022)
